Like-named read-outs stand apart in the source and are kept apart here.
Key:
mouse TGR5 receptor = molecular target: T1, mouse TGR5 receptor (Mus musculus, UniProt Q80SS6); test: Mouse TGR5 HTRF cAMP production assay (HEK293-EBNA cells, Cisbio cAMP HiRange kit); format: cell-based; details: HEK293-EBNA cells overexpressing mouse TGR5, HTRF cAMP assay
T1 construct: host or cells: HEK293-EBNA (293 c18, ATCC CRL10852)
T1 sequence (Q80SS6 1-329): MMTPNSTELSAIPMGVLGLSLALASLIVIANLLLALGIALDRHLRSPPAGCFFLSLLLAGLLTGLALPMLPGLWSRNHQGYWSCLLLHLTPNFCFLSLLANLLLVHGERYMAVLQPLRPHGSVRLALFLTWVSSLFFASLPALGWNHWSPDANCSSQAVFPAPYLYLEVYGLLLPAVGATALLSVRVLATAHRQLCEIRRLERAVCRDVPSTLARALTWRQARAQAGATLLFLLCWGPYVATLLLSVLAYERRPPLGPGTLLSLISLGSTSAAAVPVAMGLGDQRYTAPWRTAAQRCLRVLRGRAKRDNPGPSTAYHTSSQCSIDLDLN
In short: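 cAMP accumulation was read by competitive HTRF after 1 h room-temperature compound treatment, with a further 1 h conjugate incubation. Cells were mouse TGR5-overexpressing HEK293-EBNA in serum-free DMEM plus 500 μM IBMX. Compounds ran as 12-point half-log series in duplicate, and EC50 values were reported.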

human TGR5 receptor = molecular target: T2, human TGR5 receptor (Homo sapiens, UniProt Q8TDU6); test: Human TGR5 cAMP production assay (hTGR5-CHO cells, DiscoveRx cAMP XS+ kit); format: cell-based; details: luminescent cAMP assay, read-out: Human TGR5 Lum. cAMP Activity (EC50)
T2 construct: host or cells: CHO-K1 (hTGR5-CHO)
T2 sequence (Q8TDU6 1-330): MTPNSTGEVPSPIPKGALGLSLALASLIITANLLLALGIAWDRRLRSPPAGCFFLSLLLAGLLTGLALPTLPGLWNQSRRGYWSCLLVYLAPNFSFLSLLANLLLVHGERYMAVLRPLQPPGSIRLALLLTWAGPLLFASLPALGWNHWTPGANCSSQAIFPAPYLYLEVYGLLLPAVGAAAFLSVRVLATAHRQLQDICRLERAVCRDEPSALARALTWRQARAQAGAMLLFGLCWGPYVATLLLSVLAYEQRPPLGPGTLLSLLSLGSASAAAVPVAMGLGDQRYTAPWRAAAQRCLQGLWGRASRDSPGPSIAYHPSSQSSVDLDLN
In short: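 EC50 values come from luminescent enzyme-complementation cAMP detection, read after overnight incubation. Beforehand, hTGR5-expressing CHO-K1 cells with IBMX and anti-cAMP antibody were exposed 1 h at room temperature to serially diluted (half-log) compounds.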

[1] = Pharmacokinetic profile in mice after oral gavage; format: in vivo, mouse; design: unit: ng/mL; details: fasted male Hilltop mice, 10 mg/kg oral gavage, plasma
Protocol: Pharmacokinetic Profile in Mice
In this series of studies, the pharmacokinetic profile characteristics of compounds of the present invention were evaluated. The plasma concentration levels of the compounds were monitored in the blood stream (i.e., plasma) after oral gavage using Cmax, and area under the curve (AUC).
8 week old male Hilltop mice were fasted overnight. Animals were randomized into groups (n=9) by body weight. Mice were dosed with 10 mg/kg compound (in 20% PEG400/80% 0.5% carboxymethylcellulose (medium viscosity)+0.25% Tween-80) at a volume of […] through oral gavage. Blood was collected via orbital bleeding at 0, 0.25, 0.5, 1, 2, and 4 h post-dose, with no one mouse having more than 3 blood draws. Blood was collected in EDTA coated tubes. Samples were stored at −20° C. until analysis.
Quantitation of compound levels in plasma was accomplished by LC-MS/MS analysis. Standard curve and quality control samples were prepared in male CD-1 mouse plasma containing EDTA K^2+ as an anticoagulant at final concentrations ranging from 500 to 0.1 ng/mL. The plasma samples, calibration curve standards, and quality control samples were prepared in an identical method in a 96-well deep plate (1 mL) with a quenching solution (1:1 mixed acetonitrile:methanol containing the internal standard Reserpine @ 400 ng/mL). Low volume samples were supplemented with CD-1 mouse plasma. The plate was mixed on multi-tube vortexer for 1 min and centrifuged at 4000 rpm for 30 min at 4° C. (Sorvall® Super T21) before LC-MS/MS analysis. LC conditions were developed and optimized based on each compound as needed. The outlet of the column was coupled to AB Sciex 4000 QTrap Mass Spectrometer (AB Sciex, Brugg Switzerland). Detection was carried out using multiple reaction monitoring mode with positive-ion detection focusing. The pharmacokinetic parameters were derived from the plasma-time data and calculated using the standard non-compartmental method with WinNonlin (Pharsight, Mountain View, Calif.) or PK Solver (Comp. Meth. Prog. Biomed. (2010), 99, 306-314).
Values reported are the mean plasma concentration of three mice. […]

Row | EC50 (mouse TGR5 receptor) | EC50 (human TGR5 receptor) | Cmax ([1]; mouse, read-out: Cmax) | Cmax [1] | SMILES
1 | < 100 nM | < 100 nM | 2.1 ng/mL |  | N#Cc1ccc(CCNC(=O)[C@@H]2CCCN2c2cc(N3CCC(COCC(=O)NCCS(=O)(=O)O)CC3)nc(C(F)(F)F)n2)cc1 [Compound 89, (S)-2-(2-((1-(6-(2-((4-cyanophenethyl)carbamoyl)pyrrolidin-1-yl)-2-(trifluoromethyl)pyrimidin-4-yl)piperidin-4-yl)methoxy)acetamido)-ethanesulfonic acid]
2 | < 100 nM | < 100 nM | 55 ng/mL |  | N#Cc1ccc(CCNC(=O)[C@@H]2CCCN2c2cc(N3CCC(OCC#CCO)CC3)nc(C(F)(F)F)n2)cc1 [Compound 26]
3 | < 100 nM | < 100 nM | 22 ng/mL |  | N#Cc1ccc(CCNC(=O)[C@@H]2CCCN2c2cc(N3CCC(CCCC(=O)N[C@H](CC(=O)O)C(=O)O)CC3)nc(C(F)(F)F)n2)cc1 [Compound 75, (R)-2-(4-(1-(6-((S)-2-((4-cyanophenethyl)carbamoyl)pyrrolidin-1-yl)-2-(trifluoromethyl)pyrimidin-4-yl)piperidin-4-yl)butanamido)succinic acid]
4 | < 100 nM | < 100 nM | 35 ng/mL |  | O=C(NCCCC1CCN(c2cc(N3CCC[C@H]3C(=O)NCCc3ccc(C(F)(F)F)cc3)nc(C(F)(F)F)n2)CC1)NCCS(=O)(=O)O [Compound 87, (S)-2-(3-(3-(1-(2-(trifluoromethyl)-6-(2-((4-(trifluoromethyl)phenethyl)-carbamoyl)-pyrrolidin-1-yl)pyrimidin-4-yl)piperidin-4-yl)propyl)ureido)-ethanesulfonic acid]
5 | < 100 nM | < 100 nM | 2.8 ng/mL |  | N#Cc1ccc(CCNC(=O)[C@@H]2CCCN2c2cc(N3CCC(CCCC(=O)N[C@H](CCCNC(=N)N)C(=O)O)CC3)nc(C(F)(F)F)n2)cc1 [Compound 73, (R)-2-(4-(1-(6-((S)-2-((4-cyanophenethyl)carbamoyl)pyrrolidin-1-yl)-2-(trifluoromethyl)pyrimidin-4-yl)piperidin-4-yl)butanamido)-5-guanidinopentanoic acid]
6 | < 100 nM | < 100 nM | 15 ng/mL |  | N#Cc1ccc(CCNC(=O)[C@@H]2CCCN2c2cc(N3CCC(CCNS(=O)(=O)CCN)CC3)nc(C(F)(F)F)n2)cc1 [Compound 116, (S)-1-(6-(4-(2-(2-aminoethylsulfonamido)ethyl)piperidin-1-yl)-2-(trifluoromethyl)-pyrimidin-4-yl)-N-(4-cyanophenethyl)pyrrolidine-2-carboxamide]
7 | < 100 nM | < 100 nM | 8 ng/mL |  | N#Cc1ccc(CCNC(=O)[C@@H]2CCCN2c2cc(N3CCC(CCNC(=O)NCCOCCOCCOCCC(=O)O)CC3)nc(C(F)(F)F)n2)cc1 [Compound 364, (S)-1-(1-(6-(2-((4-cyanophenethyl)carbamoyl)pyrrolidin-1-yl)-2-(trifluoromethyl)pyrimidin-4-yl)piperidin-4-yl)-4-oxo-8,11,14-trioxa-3,5-diazaheptadecan-17-oic acid]
8 | < 100 nM | < 100 nM | 69 ng/mL |  | O=C(CCCC1CCN(c2cc(N3CCC[C@H]3C(=O)NCCc3cccc(Cl)c3Cl)nc(C(F)(F)F)n2)CC1)NCS(=O)(=O)O [Compound 138, (S)-(4-(1-(6-(2-((2,3-dichlorophenethyl)carbamoyl)pyrrolidin-1-yl)-2-(trifluoromethyl)pyrimidin-4-yl)piperidin-4-yl)butanamido)-methanesulfonic acid]
9 | < 100 nM | < 100 nM | 2 ng/mL |  | O=C(CCCC1CCN(c2cc(N3CCC[C@H]3C(=O)NCCc3ccc(C(F)(F)F)cc3)nc(C(F)(F)F)n2)CC1)NCCNc1ncnc2[nH]cnc12 [Compound 95, (S)-1-(6-(4-(4-((2-((9H-purin-6-yl)amino)ethyl)amino)-4-oxobutyl)piperidin-1-yl)-2-(trifluoromethyl)pyrimidin-4-yl)-N-(4-(trifluoromethyl)phenethyl)pyrrolidine-2-carboxamide]
10 | < 100 nM | < 100 nM | 64 ng/mL |  | O=C(CCCC1CCN(c2cc(N3CC[C@H]3C(=O)NCCc3ccc(C(F)(F)F)cc3)nc(C(F)(F)F)n2)CC1)NCS(=O)(=O)O [Compound 255, (S)-(4-(1-(2-(trifluoromethyl)-6-(2-((4-(trifluoromethyl)phenethyl)carbamoyl)azetidin-1-yl)pyrimidin-4-yl)piperidin-4-yl)butanamido)methanesulfonic acid]
11 | < 100 nM | < 100 nM |  | 48 ng/mL | N#Cc1ccc(CCNC(=O)[C@@H]2CCN2c2cc(N3CCC(CCNS(=O)(=O)NCCC(=O)O)CC3)nc(C(F)(F)F)n2)cc1 [Compound 355]
12 | < 100 nM | < 100 nM | 12 ng/mL |  | N#Cc1ccc(CCNC(=O)[C@@H]2CCCN2c2cc(N3CCC(CCCC(=O)NCCNc4ncc(C(=O)O)cn4)CC3)nc(C(F)(F)F)n2)cc1 [Compound 98, (S)-2-((2-(4-(1-(6-(2-((4-cyanophenethyl)carbamoyl)pyrrolidin-1-yl)-2-(trifluoromethyl)pyrimidin-4-yl)piperidin-4-yl)butanamido)ethyl)-amino)pyrimidine-5-carboxylic acid]
13 | < 100 nM | < 100 nM | 12 ng/mL |  | N=C(N)NCCNC(=O)CCCC1CCN(c2cc(N3CCC[C@H]3C(=O)NCCc3ccc(C(F)(F)F)cc3)nc(C(F)(F)F)n2)CC1 [Compound 131, (S)-1-(6-(4-(4-((2-guanidinoethyl)-amino)-4-oxobutyl)piperidin-1-yl)-2-(trifluoromethyl)pyrimidin-4-yl)-N-(4-(trifluoromethyl)phenethyl)pyrrolidine-2-carboxamide]
14 | < 100 nM | < 100 nM | 42 ng/mL |  | N=C(N)NCCC[C@H](NC(=O)CCC1CCN(c2cc(N3CC[C@H]3C(=O)NCCc3ccc(C(F)(F)F)cc3)nc(C(F)(F)F)n2)CC1)C(=O)O [Compound 258, (S)-5-guanidino-2-(3-(1-(2-(trifluoromethyl)-6-((S)-2-((4-(trifluoromethyl)phenethyl)carbamoyl)azetidin-1-yl)pyrimidin-4-yl)piperidin-4-yl)propanamido)pentanoic acid]
15 | < 100 nM | < 100 nM | 51 ng/mL |  | C[N+](C)(C)CCC[C@H](NC(=O)CCCC1CCN(c2cc(N3CCC[C@H]3C(=O)NCCc3ccc(C#N)cc3)nc(C(F)(F)F)n2)CC1)C(=O)O [Compound 105, (S)-4-carboxy-4-(4-(1-(6-((S)-2-((4-cyanophenethyl)carbamoyl)pyrrolidin-1-yl)-2-(trifluoromethyl)pyrimidin-4-yl)piperidin-4-yl)butanamido)-N,N,N-trimethylbutan-1-aminium]
16 | < 100 nM | < 100 nM | 7.9 ng/mL |  | N#Cc1ccc(CCNC(=O)[C@@H]2CCCN2c2cc(N3CCC(CCCNC(=O)NCS(=O)(=O)O)CC3)nc(C(F)(F)F)n2)cc1 [Compound 118, (S)-(3-(3-(1-(6-(2-((4-cyanophenethyl)carbamoyl)pyrrolidin-1-yl)-2-(trifluoromethyl)pyrimidin-4-yl)piperidin-4-yl)propyl)ureido)methanesulfonic acid]
